Measurements published in patent US20170150715A1, “METHODS OF ELIMINATING SPORES” (Lifeclean International AB, priority 2013, published 2017).
Marks after values point to notes of the source that are not given here.

How the values were obtained:
[1] = system: C difficile spores PCR Ribotype 023; assay: Elimination of spores of Clostridium difficile on surfaces (Example 4; glass, brass, copper); type: cell-based; conditions: 10 minutes exposure; for Culture 6 PY-broth undiluted / Culture 7 PY-broth 10^−2 / Culture 8 PY-broth 10^−4 / Culture 9 PY-broth 10^−6: cotton tip smear of surface; for total amount of CFUs in the flasks (within brackets): surviving spores displaced from the surface; for amount of CFU in the undiluted PY-broth (within brackets): surviving spores remaining attached to the surface
Source text: C difficile spores PCR Ribotype 023 (ECDC/Cardiff nomenclature) were transferred from a frozen sample to plates with Fastidious Anaerobe Agar (FAAAP), cultured under anaerobe conditions for 2 days. The cultures were transferred to ambient conditions and colonies of C difficile were admitted to sporulate. The spores were harvested and dissolved in sterile water (reverse osmosis (RO)), subjected to alcohol shock (70%), washed, centrifugated and collected as a suspension of spores.
In the preparation 0.1 ml of the spore suspension was transferred to microscopy slides, sterile plates of brass or copper. When the spore suspensions have dried, 0.2 ml of the following solutions were added:
After 10 minutes exposure to the solutions, the Glasses and the plates were each transferred to a 500 ml Glass flask to dilute and interrupt disinfection. The flasks were rotated at 200 rpm for 20 minutes.
From each of the rotated flasks 0.1 ml was transferred to agar plates (Culture 1). The samples were diluted in two steps 1/10 in tubes. From each tube, 0.1 ml was transferred to agar plates (Cultures 2 and 3).
The solutions in the flasks were filtered and rinsed with 3×100 ml buffered peptone water (PENAL). The filtrations were performed in two steps. At first, 1 ml was filtered, then remaining volume of solution in the flasks (approx. 249 ml). The filters were cultured on agar plates (Cultures 4 and 5).
At two times, 40 ml samples were taken from the filtrates. These were centrifugated and the supernatant was discarded, the pellet re-suspended in 0.1 ml 0.85% NaCl solution. The entire volume was transferred to agar plates.
In order to assess if viable spore remain on the surfaces of Glasses and the, they were smeared with moist cotton tip (all smeared in accordance with a “double-S” shape). The tip was cultured in 2 ml pre-reduced PY-broth which was diluted 1/10 in several repeated steps and cultured on agar plates (0.2 ml/plate), (Cultures 6 to 9)
All culture plates were cultured under anaerobe conditions at 36° C. for 2 days.

[2] = system: spores of C Difficile, Ribotype 25; assay: Elimination of spores of C Difficile on glass surfaces, types and combinations of surface active agents (Example 6); type: cell-based, Clostridium difficile
Procedure: Example 6 was designed in order to evaluate different types and combinations of surface active agents in combination with chlorine oxide for elimination of spores of C Difficile on surfaces. The following test solutions were used:
The solutions were prepared in accordance with Examples 2, 2A and 3. RD1 and RD2 signify the anionic surfactants of Example 3 branded DOWFAX 3B2 and DOWFAX 8390, respectively. RD3 and RD4 signify the cationic surfactants of Example 2A branded AO-8 Macat and AO-12 Macat.
A spore suspension was generated and counted in accordance with Example 4:
Ribotype 25; 8.0×10^9 spores/mL (8.0×10^8 spores on the glass surface) approximately 80% spores in the suspension.
(§1) The glass surfaces were prepared by transferring 0.1 ml of the spore solution to microscopy slides. After the suspension has dried, 0.2 ml of the test solutions were added to the slides for application times between 1 and 10 minutes. Subsequently, the glass surfaces were each placed in a 500 ml glass flask with 250 ml 0.85% NaCl solution and rotated at 200 rpm for 20 minutes.

[3] = system: spore suspension Ribotype 25; assay: Elimination of spores on glass surfaces, different contact times (Example 7); type: cell-based, Clostridium difficile; conditions: glass surface, contact time 10 min
Procedure: Example 7 outlines a test with different contact for chlorine dioxide solution according to the invention. A spore suspension was generated and counted in accordance with Example 4:
Ribotype 25; 9.6×10^8 spores/mL (9.6×10^7 spores on the glass surface) approximately 80% spores in the suspension.
as §1
The test solution comprising chlorine dioxide was prepared in accordance with Example 2B, comprising 1600 ppm chlorine dioxide together with 0.2% (v/v) cationic surfactant comprising equal amounts of octyl dimethylamine oxide and lauryl dimethylamine oxide). After rotation, the contents of the flasks were treated and cultured with procedures and agar plates in accordance with Example 4.

[4] = system: spore suspension Ribotype 25; assay: Elimination of spores on glass surfaces, different concentrations of surfactants (Example 8); type: cell-based, Clostridium difficile; conditions: glass surface, application time 2 minutes
Procedure: Example 9 outlines a test with chlorine dioxide solutions of 800 and 1600 ppm having different concentration of surfactants made in accordance with Example 2A. A spore suspension was generated and counted in accordance with Example 4:
Ribotype 25; 8.0×10^8 spores/mL (8.0×10^7 spores on the glass surface) approximately 80% spores in the suspension.
The glass surfaces were prepared by transferring 0.1 ml of the spore solution to microscopy slides. After the suspension has dried, 0.2 ml of the test solutions were added to the slides for an application time of 2 minutes. Subsequently, the glass surfaces were each placed in a 500 ml glass flask with 250 ml 0.85% NaCl solution and rotated at 200 rpm for 20 minutes.
After rotation, the contents of the flasks were treated and cultured with procedures and agar plates in accordance with Example 4.

[5] = 8.0×10^8 spores on the glass surface
[6] = spores survived not detached from the surface
[7] = surviving spores detached from the surface

## CCO [70% Ethanol, Ethanol]
[1]; Brass
  Culture 1 0.1 mL From bottle: overgrown
  Culture 2 Dilution 10^−1: 55 CFU
  Culture 3 Dilution 10^−2: 5 CFU
  Culture 4 Filtration 1 mL: overgrown
  Culture 5 Filtration 249 mL: overgrown
  Culture 6 PY-broth undiluted: overgrown
  Culture 7 PY-broth 10^−2: overgrown
  Culture 8 PY-broth 10^−4: 74 CFU
  Culture 9 PY-broth 10^−6: 0 CFU
  total amount of CFUs in the flasks (within brackets): (1.4 × 10^6) CFU
  amount of CFU in the undiluted PY-broth (within brackets): (7.4 × 10^6) CFU
[1]; Copper
  Culture 1 0.1 mL From bottle: 429 CFU
  Culture 2 Dilution 10^−1: 40 CFU
  Culture 3 Dilution 10^−2: 1 CFU
  Culture 4 Filtration 1 mL: overgrown
  Culture 5 Filtration 249 mL: overgrown
  Culture 6 PY-broth undiluted: overgrown
  Culture 7 PY-broth 10^−2: overgrown
  Culture 8 PY-broth 10^−4: 79 CFU
  Culture 9 PY-broth 10^−6: 0 CFU
  total amount of CFUs in the flasks (within brackets): (1.0 × 10^6) CFU
  amount of CFU in the undiluted PY-broth (within brackets): (7.9 × 10^6) CFU
[1]; Glass
  Culture 1 0.1 mL From bottle: overgrown
  Culture 2 Dilution 10^−1: 517 CFU
  Culture 3 Dilution 10^−2: 46 CFU
  Culture 4 Filtration 1 mL: overgrown
  Culture 5 Filtration 249 mL: overgrown
  Culture 6 PY-broth undiluted: overgrown
  Culture 7 PY-broth 10^−2: overgrown
  Culture 8 PY-broth 10^−4: 39 CFU
  Culture 9 PY-broth 10^−6: 1 CFU
  total amount of CFUs in the flasks (within brackets): (1.2 × 10^7) CFU
  amount of CFU in the undiluted PY-broth (within brackets): (3.9 × 10^6) CFU
[2]; [5]
  0.1 mL Diluted 10^−1: overgrown
  0.1 mL Diluted 10^−2: 240 CFUs
  0.1 mL From bottle: overgrown
  Filtration 1 mL: overgrown
  PY-broth Diluted 10^−2: overgrown
  PY-broth Diluted 10^−4: 86 CFUs
  PY-broth Undiluted: overgrown
[2]; [6]
  number of CFUs in the undiluted PY-broth (brackets): (8.6 × 10^6) CFUs
[2]; [7]
  number of CFUs in the flask (brackets): (6.0 × 10^7) CFUs
[3]
  Number cfu Filtration 249 mL: overgrown
  Number cfu × 10 PY-broth Undiluted: overgrown
  Number cfu × 10^3 PY-broth Diluted 10^−2: overgrown
  Number cfu × 10^5 PY-broth Diluted 10^−4: 67 cfu
  Number cfu × 10 × 250 0.1 mL From bottle: overgrown
  Number cfu × 100 × 250 0.1 mL Diluted 10^−1: overgrown
  Number cfu × 250 Filtration 1 mL: overgrown
  Number cfu × 1000 × 250 0.1 mL Diluted 10^−2: 103 cfu
[3]; [6]
  number of CFUs in the undiluted PY-broth (brackets): (6.7 × 10^6) CFUs
[3]; [7]
  number of CFUs in the flask (brackets): (2.6 × 10^7) CFUs
[4]; head lines shifted, by Table 4 layout: 0.1 mL Diluted 10^−1
  Number cfu × 100 × 250 0.1 mL Diluted 10^−2: overgrown
[4]; head lines shifted, by Table 4 layout: 0.1 mL Diluted 10^−2
  Number cfu × 1000 × 250 PY-broth Undiluted: 81 cfu
[4]; head lines shifted, by Table 4 layout: 0.1 mL From bottle
  Number cfu × 10 × 250 0.1 mL Diluted 10^−1: overgrown
[4]; head lines shifted, by Table 4 layout: Filtration 1 mL
  Number cfu × 250 0.1 mL From bottle: overgrown
[4]; head lines shifted, by Table 4 layout: Filtration 249 mL
  Number cfu Filtration 1 mL: overgrown
[4]; head lines shifted, by Table 4 layout: PY-broth Diluted 10^−2
  Number cfu × 10^3 PY-broth Diluted 10^−4: overgrown
[4]; head lines shifted, by Table 4 layout: PY-broth Diluted 10^−4
  Number cfu × 10^5 Filtration 249 mL: 28 cfu
[4]; head lines shifted, by Table 4 layout: PY-broth Undiluted
  Number cfu × 10 PY-broth Diluted 10^−2: overgrown
[4]; [6]
  number of CFUs in the undiluted PY-broth (brackets): (2.8 × 10^6) CFUs
[4]; [7]
  number of CFUs in the flask (brackets): (2.0 × 10^7) CFUs
